These results are taken from the METLIN SMRT retention time set (Domingo-Almenara et al. 2019).

The data set can be described thus: gradient 5% acetonitrile 3 min, to 50% in 2 min, to 85% in 15 min, held 3 min, 100 µL/min. Conditions: column: Zorbax Extend-C18 2.1 x 50 mm; eluents: water / acetonitrile, 0.1% formic acid. An outline of the steps:
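Mixtures of ~100 pure standards were chromatographed on a Zorbax Extend-C18 column (2.1 × 50 mm, 1.8 μm) at 100 μL/min using water and acetonitrile, each with 0.1% formic acid. Detection used a quadrupole time-of-flight mass spectrometer in positive and negative ionization mode, and data collection spanned 3 months. Retention time was obtained from adduct peaks picked computationally and each checked manually.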
`O=C1C=C(N2CCNCC2)C(=O)c2c(O)ccc(O)c21`: the RP-LC retention time worked out at 600 s.
The same measure for `O=C(Nc1ccc(C(F)(F)F)cc1)C1CCN(S(=O)(=O)c2ccc3[nH]c(=O)sc3c2)CC1`: 924 s.
`O=C(Cn1c(C2CCCO2)nc2ccccc21)Nc1ccccc1` (stereo not drawn) returned an RP-LC retention time of 638 s.
For the molecule `Cc1cc(C)cc(Oc2nccn3c(=O)n(CC(=O)Nc4cc(Cl)ccc4C)nc23)c1`, the RP-LC retention time is 1050 s.
The same measure for `COc1cccc(Cn2c(=O)c3sccc3n(Cc3nc(-c4ccc(F)c(Cl)c4)no3)c2=O)c1`: 1170 s.
`CCOC(=O)N1CCC(NS(=O)(=O)C2CC2)CC1`: the RP-LC retention time was determined as 632 s.
The same measure for `Cc1ccc(S(=O)(=O)c2cnc(N3CCN(c4ccccc4F)CC3)nc2N)cc1C`: 1200 s; for `CCOC(=O)c1c(C)oc2nc(C)nc(NCCCN(CC)c3ccccc3)c12`: 825 s; for `CCCn1cc(C2=CCN(C(=O)NC3CCCCC3)CC2)c2cccnc21`: 943 s.
The same measure for `O=C(Nc1ccc2c(c1)OCCO2)C1CCCN(S(=O)(=O)c2c[nH]c(C(=O)N3CCCC3)c2)C1` (stereo not drawn): 756 s; for `Cc1nnc(C2CCCCCN2S(=O)(=O)c2ccc(F)c(C)c2)o1` (stereo not drawn): 893 s; for `O=C(CSc1ccc(-c2cccc([N+](=O)[O-])c2)nn1)c1ccc(F)cc1`: 944 s.
Next, `CC(Oc1ccc(-c2cnc3ccccc3n2)cc1)C(=O)N1CCOCC1` (stereo not drawn): 751 s; `CC(C)CCNC(=O)C1CCN(c2nc3ccsc3c(=O)n2Cc2ccccc2)CC1`: 890 s.
On to `COc1cc(OC)c(/C=C2/C(=O)Nc3ccccc32)c(OC)c1`, for which the RP-LC retention time was determined as 986 s.
The same measure for `CCN1C(=O)COc2ccc(-c3nc(NC(=O)c4ccco4)sc3C)cc21`: 883 s; for `Cc1ccc(NC(=O)CN2CCc3ccccc3C2C(=O)N2CCCCC2)cc1Cl` (stereo not drawn): 1030 s; for `CCC(NC(=O)c1cnc(-c2ccccc2)nc1-c1ccncc1)c1ccc(OC)cc1` (stereo not drawn): 882 s.
Next, `CCc1cc(C(=O)Nc2ccc(C)c(C)c2)nc2ccnn12`: 1150 s.
`Cn1c(-c2cccc(C(=O)NCc3ccc(F)cc3F)c2)nc2cccnc21` returned an RP-LC retention time of 743 s.
In turn, `Nc1ccc2nc3ccc(=O)cc-3n(-c3ccccc3)c2c1` yielded an RP-LC retention time of 614 s.
The same measure for `COc1ccc(-c2cc3nn(CC(=O)Nc4ccccc4)c(=O)n3c(C)n2)cc1`: 661 s; for `Cc1cc2c(c(=O)n1Cc1ccccc1)C(C(C)C)C(C#N)=C(N)O2` (stereo not drawn): 769 s; for `CN1c2ccccc2C(=O)NC12CCN(C(=O)NCCc1ccccc1)CC2`: 728 s.
Next, `Cc1cc(C(=O)N2c3ccccc3CC2c2nc(C3CC3)no2)nn1C` (stereo not drawn): 929 s.
The same measure for `Cc1ccc(NC(=O)C2(C)Oc3cccnc3N(C)C2=O)c(C)c1` (stereo not drawn): 816 s; for `O=C(Nc1ccc(OCc2nnc(-c3ccc(Cl)cc3)o2)cc1)c1ccccn1`: 990 s; for `Cc1ccc(CNC(=O)c2ccc3ccnc(N4CCN(c5ccc(Cl)cc5)CC4)c3c2)o1`: 887 s.
Molecule `Cc1noc(C)c1-c1ccc(S(=O)(=O)NC2CCC(C)CC2)cc1` (stereo not drawn) displayed an RP-LC retention time of 1030 s.
The same measure for `COc1cccc(S(=O)(=O)N2C[C@@H](F)C[C@H]2C(=O)N2CCc3ccccc3C2)c1`: 904 s; for `O=c1[nH]c2ccc(NCc3ccc(-c4ccccc4)cc3)cc2[nH]1`: 674 s.
Next, `O=C(Cn1nc(N2CCOCC2)c2ccccc2c1=O)Nc1cccc(Cl)c1`: 846 s.
Next, `Cc1ccc(C)c(NC(=O)C2CCCN(c3ncnc4c3nc3n4CCCCC3)C2)c1` (stereo not drawn): 793 s.
As for `COc1ccc(S(=O)(=O)N(C)C2CCc3nn(CC4CC4)c(=O)n3CC2)cc1Cl` (stereo not drawn), the RP-LC retention time stood at 810 s.
Next, `O=C(Nc1nc(CCC(=O)N2CCn3c2nc2ccccc23)cs1)c1ccc(F)cc1`: 721 s; `CCS(=O)(=O)N1CC(=O)N(c2cccc(C)c2C)C(C)(C(=O)NC2CCCCCC2)C1` (stereo not drawn): 930 s.
The same measure for `O=C(NC1CCCCCC1)C1CCN(S(=O)(=O)c2cc(C(=O)N3CCCCCC3)cs2)CC1`: 956 s.
Next, `COc1ccc(CN2CCC([C@@H]3CNC[C@H]3CO)CC2)c(Cl)c1OC`: 551 s.
Take `Cn1cccc1C(=O)C(=O)NCc1cccc(Br)c1`: the RP-LC retention time came to 918 s.
Next, `COc1ccc(C(C)NC(=O)Cn2c(C)cc(-c3nnc(C4CCC4)o3)c2C)cc1` (stereo not drawn): 866 s; `O=S(=O)(c1ccccc1Br)N1CCCC1c1nc(-c2ccc(F)cc2)no1` (stereo not drawn): 1110 s.
Next, `O=C(NCc1ccc(F)c(Cl)c1)c1cn(-c2ccc(NC(=O)C3CC3)cn2)cn1`: 801 s.
For the molecule `NS(=O)(=O)c1nn2cc(-c3ccccc3)nc2s1`, the RP-LC retention time amounted to 813 s.
`Cc1nnc2ccc(-c3noc(-c4ccc(Cl)cc4)n3)cn12`: the RP-LC retention time stood at 959 s.
Take `Cc1ccccc1CN1CCN(CC(=O)Nc2cccc(Cl)c2C)C(=O)C1=O`: the RP-LC retention time is 792 s.
The same measure for `CCCNC(=O)N1CCCN(C2=NS(=O)(=O)C(c3cccc(Cl)c3)=C2C)CC1`: 775 s; for `COC(=O)C1=C(C)NC(=O)NC1c1cn(-c2ccccc2)nc1-c1ccc(F)cc1` (stereo not drawn): 857 s; for `CCN1CCN(S(=O)(=O)c2cccc(-c3nc(-c4ccc(C)cc4)no3)c2)CC1`: 786 s.
The same measure for `Cn1cc(CCNC(=O)c2cncc(Br)c2)c2cccnc21`: 638 s; for `CCc1ccc2c(c1)cc(S(=O)(=O)c1ccccc1)c(=O)n2CC(=O)NC1CCCCC1`: 1030 s.
In turn, `Cc1c(C(=O)NCC2CC2)cnn1-c1ccc(-c2nc(C3CC3)no2)cn1` displayed an RP-LC retention time of 810 s.
For the molecule `O=C(Cn1nc2n(c1=O)CCCC2)N1CCN(c2ccc(F)cc2)CC1`, the RP-LC retention time came out at 651 s.
The same measure for `NS(=O)(=O)c1ccc2nc(NC(=O)COc3ccc(Cl)cc3)sc2c1`: 766 s; for `Cc1c(C(=O)N2CCCC(C)C2)cnn1-c1ccc(-c2nc(C(C)C)no2)cn1` (stereo not drawn): 1120 s; for `O=C(CCC[C@@H]1[C@H]2CCCN3CCC[C@@H](CN1C(=O)c1cccs1)[C@@H]23)NCC1CC1`: 586 s.
Molecule `COC(=O)c1c(NCc2ccc(SC)cc2)c2cccc(Cl)c2[nH]c1=O` gave an RP-LC retention time of 853 s.
The same measure for `CCOc1ccc(NC(=O)N2CCN(c3cc(C)nc(Nc4ccc(C)cc4)n3)CC2)cc1`: 727 s; for `O=C(Nc1ccc(S(=O)(=O)Nc2nccs2)cc1)c1ccco1`: 616 s.
With `CCOc1ccc(CN2CCc3nc(N4CCOCC4)ncc3C2)cc1OCC`, the RP-LC retention time came out at 577 s.
The same measure for `CC1CCN(CCNS(=O)(=O)c2ccccc2-c2nc(-c3cccc(F)c3)no2)CC1`: 755 s; for `CCOc1ccc(S(=O)(=O)N2CCc3c(c(-c4nnc(-c5ccccc5F)o4)nn3C)C2)cc1`: 945 s; for `O=C(Cn1nc2c(cc1=O)CCCC2)NCCc1c[nH]c2ccc(F)cc12`: 753 s.
The same measure for `CCOC(=O)c1ccc(NC(=O)Cn2nc3c(Oc4ccccc4)nccn3c2=O)cc1`: 852 s.
In the case of `Cc1ccc(CNC(=O)c2ccc3cnn(Cc4ccc(F)cc4)c3c2)o1`, the RP-LC retention time was found to be 916 s.
Take `Cc1ccc2c(c1)N(C(=O)C1CCN(S(=O)(=O)c3cccnc3)CC1)CCO2`: the RP-LC retention time turned out to be 823 s.
`CCn1cnc(S(=O)(=O)N2CCC(C(=O)NCC(C)c3ccccc3)CC2)c1` (stereo not drawn) came in with an RP-LC retention time of 732 s.
The same measure for `O=C(c1cccs1)N1CC(Oc2cccc(-c3nc(-c4ccccc4)no3)c2)C1`: 1180 s; for `O=C(Cn1cnc2c(sc3nc(-c4ccccc4)ccc32)c1=O)Nc1ccc(F)cc1`: 994 s; for `Cc1ccc(Cc2nc(-c3cccc(-c4ccn[nH]4)c3)no2)cc1`: 999 s.
Next, `Cc1cc(C)n(-c2nc(C)c(C(=O)Nc3ccccc3F)s2)n1`: 1120 s; `Cc1nccnc1Sc1ccccc1`: 956 s; `CN1c2cc(Cl)ccc2C(=O)NC12CCN(C(=O)Nc1cccc(F)c1)CC2`: 831 s.
`CCOc1cc(=O)n2c(c1C(=O)NCc1ccc(C)o1)CCCCC2`: the RP-LC retention time stood at 688 s.
The same measure for `O=C(Cn1c(=O)c2cccn2c2ccccc21)NCCCN1CCCCCC1`: 612 s; for `CCc1ccc(-c2noc(Cn3c(=O)n(-c4ccc(OC)cc4)c(=O)c4sccc43)n2)cc1`: 1150 s.
Regarding `O=C(NCc1cc(F)cc(F)c1)C1CCCN(c2ccc(-c3ccccc3)nn2)C1` (stereo not drawn), the RP-LC retention time is 735 s.
Take `Fc1ccc(Br)cc1-c1nc2ccc(Cl)cn2c1Nc1ccc2c(c1)OCCO2`: the RP-LC retention time is 929 s.
`Cc1nc(-n2c(C)ccc2C)sc1C(=O)NC1CC1`: the RP-LC retention time amounted to 850 s.
